Test results taken from US20240115582A1, “USE OF SODIUM TRANS-[TETRACHLORIDOBIS(1H-INDAZOLE)RUTHENATE(III)] FOR TREATING CANCERS” (Bold Therapeutics Inc., priority 2020, published 2024).

What was measured:
[1] = test system: BRAFMT CRC cells; test: Combination of BOLD-100 with ATRi, apoptosis (PARP/cleaved caspase-3 WB, caspase 3/7 activity, PI flow cytometry); format: cell-based; settings: for cell death following BOLD-100 treatment: co-treated with BOLD-100 for 48 h, BRAFMT CRC; for apoptosis when combined with BOLD-100: in particular in BRAFMT CRC cells
Description: HT-29 and VACO432 CRC cells were co-treated with BOLD-100 and ATRi AZD6738, M4344 or Berzosertib for 48 h and apoptosis was assessed using WB analyses for PARP and cleaved caspase-3 (A) and caspase 3/7 activity assays (B). C. BRAFMT CRC cells VACO432, COL0205 and LIM2405 were co-treated with BOLD-100 and ATRi AZD6738, M4344 or Berzosertib for 48 h and apoptosis assessed by PI flow cytometry.

[2] = test system: BRAFMT CRC cells; test: Combination of BOLD-100 with ATRi, cell viability (CellTitre-Glo, clonogenic survival); format: cell-based; settings: in particular in BRAFMT CRC cells
Description: FDA approved drug screen targeting the significant pathways deregulated following BOLD-100 treatment in BRAFMT CRC. BRAFMT HT-29 (A) and VACO432 (B) cells were co-treated with BOLD-100, IC10, IC20, IC30 doses of 60 FDA approved drugs alone or in combination with BOLD-100 for 72 h and cell viability determined using the CellTitre-Glo® assay. Robust z-scores were calculated for combination treatment and normalized to effect of 50 μM BOLD-100. Combinations with r-Z score of <−1 were considered to enhance sensitivity to BOLD-100 treatment. Cell viability for combined BOLD-100/AZD6738 treatment was graphed using GraphPad Prism 8.0. C. Clonogenic survival assays in BRAFMT LIM2405, VACO432 and RKO CRC cells following co-treatment with BOLD-100 and AZD6738 for 14 days. Survival was graphed using GraphPad Prism 8.0.

[3] = test system: GRP78, CHOP; test: Western blotting of UPR markers after BOLD-100; format: cell-based; settings: treatment with BOLD-100
Description: (§1) Methods: Cell Titre Glo, Annexin V/PI high content screening, Flow Cytometry, Western blotting, Caspase 8, 3/7 activity, ROS-Glo^a H2O2, RNAi assays were used. RNA seq and bioinformatic analyses were performed on BOLD-100-treated BRAFMT/WT CRC cells, using the Illumina Novoseq platform and Reactome Pathway Analysis.
(§2) As illustrated in FIG. 2. BRAFMT, CMS1 CRC cells show increased sensitivity to treatment with BOLD-100. Upper: A. BRAFMT V600E HT-29 cells were treated with BOLD-100 for the indicated time and GRP78, CHOP and PARP levels determined by Western blotting (WB). B. HT-29 cells were treated with BOLD-100 for the indicated times and HSPA5, ATF4 and DDIT3 mRNA levels quantified using RT-PCR. Raw values were normalised to the expression of housekeeping genes ACTB and GAPDH and analysed using the ΔΔCT method. Lower: A. CRC cells were treated with increasing concentrations of BOLD-100 and cell viability determined using CellTitre-Glo® assay. IC50 was calculated using Prism software package. B. CRC cells were treated with BOLD-100 for 48 h. Apoptosis was assessed using Annexin V/propidium iodide (PI) staining by high-content screening. The graph indicates the percentage of positive stained cells following treatment with 100 μM BOLD-100. Mean of 3 independent experiments is shown.

[4] = test system: BRAFMT, MSS CRC cells; test: CellTitre-Glo and Annexin V/PI sensitivity studies; format: cell-based; settings: isogenic paired and non-isogenic V600E BRAFMT and BRAFWT panel
Description: Materials: A panel of isogenic paired and non-isogenic V600E BRAFMT and BRAFWT cells were used. BOLD-100, a ruthenium-based small molecule inhibitor, was obtained from BOLD Therapeutics. A FDA approved compound library was used.
as §1
as §2, with “The graph indicates the percentage of positive stained cells following treatment with 100 μM BOLD-100. Mean of 3 independent experiments is shown.” left out

[5] = test system: BRAFMT CRC cells; test: Cell death / caspase 3/7 activity after BOLD-100; format: cell-based
Description: as §1
A.: Positive hits for primary siRNA screen against 178 target TSG. sRNA was carried out for 24 h, followed by treatment with BOLD-100 for 48 h. Forty-Six targets were identified, resulting in either increased sensitivity or resistance to BOLD-100 (based on robust z-score ±1). B. Positive hits from secondary siRNA screen using 2 additional siRNA sequences against 46 targets. C. CRC cells were pre-incubated with DMSO or 20 μM of the pan-caspase inhibitor, z-VAD-FMK for 3 h followed by treatment with BOLD-100 for 48 h following which, apoptosis was assessed by WB analyses for PARP (top) and caspase-3/7 activity assay (bottom). […] Apoptosis was assessed by WB analysis for PARP (left) and caspase-3/7 activity (right). […] Apoptosis was determined by WB for PARP (left) and caspase-3/7 activity levels (right).
A. BRAFMT CRC cells were treated with BOLD-100 for the indicated time and ATR/KAP1/CKH1/CHK2 expression/activity measured by WB. B. CRC cells were co-treated with BOLD-100 and AZD6738 for 48 h and phosphorylation/expression of ATR/KAP1 and the downstream kinases measured. […]

[6] = test system: BRAFMT CRC cells; test: ROS-Glo H2O2 assay; format: cell-based
Description: as §1
(§3) A. BRAFMT CRC cells were treated with BOLD-100 for the indicated time and ATR/KAP1/CKH1/CHK2 expression/activity measured by WB. B. CRC cells were co-treated with BOLD-100 and AZD6738 for 48 h and phosphorylation/expression of ATR/KAP1 and the downstream kinases measured. C. CRC cells were treated with BOLD-100 for the indicated times and generation of ROS measured using a ROS-Glo™ H2O2 assay. D. and E. WB and caspase 3/7 activity in cells pre-treated with NAC for 3 h followed by treatment with BOLD-100 for an additional 24h.

[7] = test system: pATR^T1989, pChk1^S345 and γH2AX; test: Western blotting of ATR/CHK1 DNA damage signalling; format: cell-based
Description: as §1, §3

[8] = Degradation in water; format: physicochemical
Description: One skilled in the art will recognize that limiting this degradation reaction would be advantageous to obtaining the highest purity product. […] In one aspect of the invention, the sodium trans-[tetrachlorobis(1H-indazole)ruthenate (III)] solution is cooled to 4° C. during the formulation process. In another aspect of the invention, the sodium trans-[tetrachlorobis(1H-indazole)ruthenate (III)] solution is cooled to 2-8° C. during the formulation process. In another aspect of the invention, the sodium trans-[tetrachlorobis(1H-indazole)ruthenate (III)] solution is cooled to 2-15° C. during the formulation process.

**Q.** For C[C@@H]1COCCN1c1cc(C2([S@](C)(=N)=O)CC2)nc(-c2cc[nH]c3nccc2-3)n1 [AZD6738], which “cell death following BOLD-100 treatment” value [1] is on record?
**A.** increase cell death

**Q.** What about the “apoptosis when combined with BOLD-100” value [1] of the same compound?
**A.** apoptosis

**Q.** And the “interaction when combined with BOLD-100” value [2]?
**A.** strong synergy

**Q.** Which GRP78 levels [3] does the source give for [Cl][Ru]([Cl])([Cl])[Cl].[Na+].c1ccc2[nH]ncc2c1.c1ccc2[nH]ncc2c1 [BOLD-100, Sodium trans-[tetrachloridobis(1H-indazole)ruthenate(III)]] here?
**A.** early decreases

**Q.** And the “expression levels of the endoplasmic reticulum stress protein CHOP” value [3]?
**A.** increases

**Q.** And the IC50 [4]?
**A.** 9.25 to 31 µM

**Q.** And the “type of cell death” value [5]?
**A.** caspase-8 dependent cell death

**Q.** What about the ROS [6] of the same compound?
**A.** acute increases in ROS

**Q.** And the “pATR^T1989, pChk1^S345 and γH2AX expression levels” value ([7]; BRAFMT cells)?
**A.** rapid and potent increases

**Q.** What about the stability in water [8] of the same compound?
**A.** can degrade in water to Compound A

**Q.** Which “cell death following BOLD-100 treatment” value [1] does the source give for CNCc1ccc(-c2cc(-c3nc(-c4ccc(S(=O)(=O)C(C)C)cc4)cnc3N)on2)cc1 [Berzosertib] here?
**A.** increase cell death

**Q.** Which “cell death following BOLD-100 treatment” value [1] does the source give for Nc1nn2cc(F)cnc2c1C(=O)Nc1cncc(F)c1N1CCC(C(=O)N2CCN(C3COC3)CC2)CC1 [M4344] here?
**A.** increase cell death

**Q.** What about the “apoptosis when combined with BOLD-100” value [1] of the same compound?
**A.** apoptosis

**Q.** What about the “interaction when combined with BOLD-100” value [2] of the same compound?
**A.** strong synergy

**Q.** Which “effect on cell death following BOLD-100 treatment” value ([5]; ROS scavenger) does the source give for CC(=O)N[C@@H](CS)C(=O)O [NAC] here?
**A.** rescued cell death

**Q.** And the “effect on BOLD-100 induced CHOP, pATR^T1989, pChk1^S345 and γH2AX levels” value ([7]; ROS scavenger, BRAFMT CRC cells)?
**A.** abrogated
